# Source: patent US4563527A, “Amidine compounds” (Torii & Co., Ltd., priority 1984, dated 1986)
# Read-outs that look alike come from different tables or passages of the source.
# What was measured:
# Trypsin = target: T1, Trypsin (Bos taurus, UniProt P00760); test: Anti-trypsin activity (hydrolysis of TAME); assay type: biochemical; conditions: molar concentration inhibiting 50% of TAME hydrolysis; read-out: ID50 trypsin
# T1 sequence (P00760 24-246): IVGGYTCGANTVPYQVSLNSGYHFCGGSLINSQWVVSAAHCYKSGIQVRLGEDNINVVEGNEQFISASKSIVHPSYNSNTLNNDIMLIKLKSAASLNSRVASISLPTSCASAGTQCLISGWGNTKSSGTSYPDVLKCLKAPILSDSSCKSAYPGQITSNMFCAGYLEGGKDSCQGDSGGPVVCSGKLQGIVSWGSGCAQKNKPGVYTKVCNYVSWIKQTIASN
# Description: (§1) The anti-trypsin, anti-plasmin, anti-kallikrein and anti-thrombin activities were determined according to the method of Muramatsu et al. [M. Muramatus, T. Onishi, S. Makino, Y. Hayashi and S. Fujii, J. of Biochem., 58, 214 (1965)]. The data summarized in Table 1 are expressed in terms of molar concentration (ID50) of the test compound which inhibits 50% of the activity of each enzyme to hydrolyze TAME (tosylalginine methyl ester). The compound No. corresponds to the compound number shown in Examples.
# Plasmin = Plasmin (Homo sapiens, UniProt P00747); test: Anti-plasmin activity (hydrolysis of TAME); assay type: biochemical; conditions: molar concentration inhibiting 50% of TAME hydrolysis; read-out: ID50 plasmin
# Description: The anti-trypsin, anti-plasmin, anti-kallikrein and anti-thrombin activities were determined according to the method of Muramatsu et al. [M. Muramatus, T. Onishi, S. Makino, Y. Hayashi and S. Fujii, J. of Biochem., 58, 214 (1965)]. […] The compound No. corresponds to the compound number shown in Examples.
# Kallikrein = test: Anti-kallikrein activity (hydrolysis of TAME); assay type: biochemical; conditions: molar concentration inhibiting 50% of TAME hydrolysis; read-out: ID50 kallikrein
# Description: as §1
# Thrombin = Thrombin (Homo sapiens, UniProt P00734); test: biochemical; conditions: for IC50: read-out: ID50 thrombin
# C1r = target: T2, C1r (Homo sapiens, UniProt P00736); test: biochemical; conditions: molar concentration inhibiting 50% of AAME hydrolysis; read-out: ID50 C1r (Anti-C1 activity)
# T2 sequence (P00736 464-705 limits assumed): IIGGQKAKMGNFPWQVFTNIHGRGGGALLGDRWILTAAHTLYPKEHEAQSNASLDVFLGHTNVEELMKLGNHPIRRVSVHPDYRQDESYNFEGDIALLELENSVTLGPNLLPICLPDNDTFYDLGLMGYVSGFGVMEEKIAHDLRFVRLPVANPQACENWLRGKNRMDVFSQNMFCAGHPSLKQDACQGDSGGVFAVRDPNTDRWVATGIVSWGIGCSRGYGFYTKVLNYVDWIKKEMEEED
# T2 sequence (P00736 18-463 partner limits assumed): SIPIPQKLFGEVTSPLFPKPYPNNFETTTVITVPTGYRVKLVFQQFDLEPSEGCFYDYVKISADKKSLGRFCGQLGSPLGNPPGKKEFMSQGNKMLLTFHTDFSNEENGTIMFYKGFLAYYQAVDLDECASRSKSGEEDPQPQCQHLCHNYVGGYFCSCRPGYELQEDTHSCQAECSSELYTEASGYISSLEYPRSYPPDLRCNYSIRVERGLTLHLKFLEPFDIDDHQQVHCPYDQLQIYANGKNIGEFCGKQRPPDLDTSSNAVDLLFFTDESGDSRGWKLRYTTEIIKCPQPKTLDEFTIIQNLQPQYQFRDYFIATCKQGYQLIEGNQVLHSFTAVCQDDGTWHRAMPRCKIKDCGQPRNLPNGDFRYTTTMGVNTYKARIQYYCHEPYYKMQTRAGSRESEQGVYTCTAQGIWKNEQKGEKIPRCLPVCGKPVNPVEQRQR
# C1s = target: T3, C1s (Homo sapiens, UniProt P09871); test: Anti-C1s activity (hydrolysis of ATEE); assay type: biochemical; conditions: molar concentration inhibiting 50% of ATEE hydrolysis; read-out: ID50 C1s (Anti-C1 activity)
# T3 sequence (P09871 438-688 limits assumed): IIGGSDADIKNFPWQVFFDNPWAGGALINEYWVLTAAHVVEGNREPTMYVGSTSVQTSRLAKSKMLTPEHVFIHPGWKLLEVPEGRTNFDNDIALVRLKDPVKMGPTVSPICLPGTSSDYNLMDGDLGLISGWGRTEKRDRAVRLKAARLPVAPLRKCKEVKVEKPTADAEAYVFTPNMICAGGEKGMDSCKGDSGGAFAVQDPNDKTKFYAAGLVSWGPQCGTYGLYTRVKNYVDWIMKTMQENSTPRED
# T3 sequence (P09871 16-437 partner limits assumed): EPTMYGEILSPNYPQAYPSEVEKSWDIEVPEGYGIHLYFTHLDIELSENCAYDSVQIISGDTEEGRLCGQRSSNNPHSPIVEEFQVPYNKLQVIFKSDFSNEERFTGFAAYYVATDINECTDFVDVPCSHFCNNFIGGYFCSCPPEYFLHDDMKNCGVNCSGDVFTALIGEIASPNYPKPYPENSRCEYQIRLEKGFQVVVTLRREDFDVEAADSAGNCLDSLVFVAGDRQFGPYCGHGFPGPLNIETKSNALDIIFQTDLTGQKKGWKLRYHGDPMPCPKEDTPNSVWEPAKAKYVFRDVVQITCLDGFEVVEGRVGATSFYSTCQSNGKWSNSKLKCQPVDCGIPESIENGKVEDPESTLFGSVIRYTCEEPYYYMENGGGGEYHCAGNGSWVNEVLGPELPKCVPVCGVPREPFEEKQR
# Description: The anti-C1 esterase (C1r, C1s) activity was determined according to the method of Okamura et al. [K. Okamura, M. Muramatsu and B. Fujii, Biochem. Biophys. Acta, 295, 252-257 (1973)]. The inhibition of complement mediated hemolysis was determined according to the method of Baker et al. [B. R. Baker and E. H. Erickson, J. Med. Chem. 12, 408-414 (1969)]. The figures in Table 2 have the following meanings:
# C1s: Molar concentration of the test compound which inhibits 50% of the ability of C1s to hydrolyse ATEE (acetyltyrosin ethyl ester) (ID50).
# complement = test: Inhibition of complement mediated hemolysis; assay type: cell-based
# Description: The complement mediated hemolysis is widely used as a means to determine the titration of complement. The principle of this method is based on the fact that hemolysis is caused by the activation of complement, when the latter is added to a complex (immune complex) of erythrocytes and the antibody thereof. The degree of hemolysis varies in proportion to the amount of complement added. Therefore, when a known amount of complement admixed with a C1 esterase inhibitor is used, the hemolysis must be suppressed in proportion to the inhibitory activity.
# The anti-C1 esterase (C1r, C1s) activity was determined according to the method of Okamura et al. [K. Okamura, M. Muramatsu and B. Fujii, Biochem. Biophys. […] The figures in Table 2 have the following meanings: […]
# [1] = molar concentration inhibiting 50% of TAME hydrolysis
# Plasmin, sequence (P00747 581-810 limits assumed, species assumed): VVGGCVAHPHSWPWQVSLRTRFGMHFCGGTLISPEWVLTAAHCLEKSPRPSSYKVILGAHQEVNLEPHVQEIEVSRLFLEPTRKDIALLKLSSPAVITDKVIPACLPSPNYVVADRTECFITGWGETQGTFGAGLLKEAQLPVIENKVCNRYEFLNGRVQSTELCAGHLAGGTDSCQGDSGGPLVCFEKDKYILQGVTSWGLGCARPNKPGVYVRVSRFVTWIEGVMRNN
# Plasmin, sequence (P00747 97-580 partner limits assumed, species assumed): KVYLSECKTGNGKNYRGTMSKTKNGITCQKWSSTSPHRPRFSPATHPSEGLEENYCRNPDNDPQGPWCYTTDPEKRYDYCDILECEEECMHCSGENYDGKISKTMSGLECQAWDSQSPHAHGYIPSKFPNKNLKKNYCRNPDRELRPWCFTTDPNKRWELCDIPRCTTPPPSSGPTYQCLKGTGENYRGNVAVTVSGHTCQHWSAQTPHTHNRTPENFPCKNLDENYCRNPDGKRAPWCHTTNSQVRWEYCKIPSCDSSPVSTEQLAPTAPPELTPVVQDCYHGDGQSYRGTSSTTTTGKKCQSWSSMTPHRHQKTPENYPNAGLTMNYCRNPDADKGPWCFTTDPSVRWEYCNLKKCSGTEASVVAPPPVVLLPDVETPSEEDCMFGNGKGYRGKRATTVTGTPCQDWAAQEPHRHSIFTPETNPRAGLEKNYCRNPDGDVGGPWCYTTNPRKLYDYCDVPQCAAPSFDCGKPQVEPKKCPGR
SMILES,IC50 (Trypsin) [nM],IC50 (Plasmin) [nM],IC50 (Kallikrein) [nM],"inhibition at 10 µM (Thrombin; figure in parentheses, at 1×10^-5 M, TAME, read-out: percentage inhibition of thrombin) [%]",IC50 (C1r) [nM],IC50 (C1s) [nM],Inhibition of complement mediated hemolysis (%) (complement; 1 × 10^-5),Inhibition of complement mediated hemolysis (%) (complement; 1 × 10^-6),Inhibition of complement mediated hemolysis (%) (complement; 1 × 10^-7),IC50 (Thrombin) [nM],IC50 (Thrombin; [1]) [nM]
N=C(N)NCc1ccc(C(=O)Oc2ccc3cc(C(=N)N)ccc3c2)s1 [compound 28],4000,9000,4000,46,2000,3000,100,82,35,–,–
N=C(N)c1ccc2cc(OC(=O)c3ccc(CN)o3)ccc2c1 [compound 33],500,400,4000,–,700,2000,97,97,81,3000,–
N=C(N)c1ccc2cc(OC(=O)c3ccc(CNC(=O)C(N)CCCCN)o3)ccc2c1 (stereo not drawn) [compound 35],8000,3000,900,–,2000,3000,100,100,71,3000,–
N=C(N)c1ccc2cc(OC(=O)c3ccc(CNC(=O)C(N)COCc4ccccc4)o3)ccc2c1 (stereo not drawn) [compound 36],200,600,600,–,500,4000,100,100,68,–,300
N=C(N)c1ccc2cc(OC(=O)c3ccc(NC(=O)C4CCC(CN)CC4)o3)ccc2c1 (stereo not drawn) [compound 37],700,400,400,–,3000,400,99,78,12,–,900
N=C(N)c1ccc2cc(OC(=O)c3ccc(CNC(=O)C4CCC(CN)CC4)o3)ccc2c1 (stereo not drawn) [compound 38],500,400,300,–,300,3000,100,100,98,–,80
N=C(N)c1ccc2cc(OC(=O)c3ccc(CCNC(=O)C4CCC(CN)CC4)o3)ccc2c1 (stereo not drawn) [compound 39],800,400,500,–,400,4000,100,100,71,–,2000
